What was measured:
SF767 cells = experiment: Clonogenic survival assay with TMZ; assay type: cell-based, human
Protocol: SF767 cells are noted for their pronounced resistance to TMZ (LD50 about 600 μM) mediated in large part by MGMT. The effect of suppression of MGMT activity by NPCP-BG on TMZ-mediated reduction in clonogenic survival of SF767 is illustrated in FIG. 6. Cells were exposed to NPCP-BG equivalent to 20 μM free drug for 2 hr followed by incubation with TMZ for 24 hr in the presence of inhibitor. Controls were treated either with 20 μM free BG or with an equivalent volume of DMSO.
Determination of proliferative survival of SF767 by clonogenic assay was performed as described previously (Blank et al., DNA Repair 2004, 3, 629-638). Briefly, 6-well plates inoculated with 2 mL of supplemented medium containing 1000 to 2000 cells were incubated overnight at 37° C. in 95%/5% air/CO2 to allow reattachment and resumption of proliferation. Cells were then incubated for 2 hrs with inhibitor-conjugated NP equivalent to 20 μM free BG prior to exposure to TMZ. Incubation was continued for 22 hr before changing cells to fresh, drug-free medium to allow formation of colonies ≧50 cells. […] Cytotoxicity was quantitated by linear regression analysis of plots of log surviving fraction v. […] Survival was determined in 4 separate experiments in which every dose was assayed in duplicate (i.e., 8 determinations per TMZ dose) in order to achieve statistical significance.

brain tumors = details: cited from earlier work
[1] = clinical trials, BG included in TMZ regimens; cited from earlier work
[2] = rodent models; cited from earlier work
[3] = molecular target: T1, O6-methylguanine-DNA methyltransferase (MGMT) (Homo sapiens, UniProt P16455); experiment: MGMT activity assay in treated SF767 cells; assay type: cell-based; details: 20 μM free BG, 2 hr
T1 construct: MGMT activity determined in cleared supernatants of whole cell homogenates; endogenous in cells; host or cells: SF767 human GBM cell line (ATCC)
T1 sequence (P16455 1-207): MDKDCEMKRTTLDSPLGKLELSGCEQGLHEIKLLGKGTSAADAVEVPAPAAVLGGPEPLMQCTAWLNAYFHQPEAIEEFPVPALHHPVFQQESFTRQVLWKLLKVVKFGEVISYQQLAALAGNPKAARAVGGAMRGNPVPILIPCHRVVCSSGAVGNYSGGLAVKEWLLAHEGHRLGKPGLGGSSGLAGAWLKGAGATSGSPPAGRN
Protocol: In this experiment, MGMT activity was assayed in untreated cells, cells incubated with 20 μM free BG for 2 hr, and cells treated for either 2 hr or 24 hr with NPCP-BG equivalent to 5 μM, 10 μM or 20 μM BG. […] All treatment conditions were normalized as a percent MGMT activity of untreated SF767 cells.
The MGMT activities of protein extracts of human GBM SF767 cells were measured in a standard biochemical assay that quantifies the transfer of radioactivity from a DNA substrate containing [methyl^3H]O^6-methylguanine (specific activity, 80 Ci/mmol) to protein, as detailed previously (Silber et al., Cancer Res 1998, 58, 1068-1073). 2×10^6 SF767 cells were plated in 100 mm treated dishes and incubated with 20 μM free BG for and 2 hr or 24 hr with NPCP-BG equivalent to 5 μM, 10 μM or 20 μM BG in fully supplemented media. After incubation, cells were washed with PBS and collected and protein extracts were prepared. The protein extract supernatant was prepared by dissolution of washed SF767 pellets of known cell number with non-ionic detergents in the presence of 600 mM NaCl. Aliquots of crude homogenate were saved for DNA determination by the diphenylamine method that measures deoxyribose following degradation of DNA with heat and acid. Crude homogenate was cleared by centrifugation at 10,000×g for 30 min. […]

Compound: Cn1nnc2c(C(N)=O)ncn2c1=O [TMZ, temozolomide]
- TMZ LD50 (dose reducing clonogenic survival to 50%) (SF767 cells; TMZ alone): about 600 μM

Compound: chlorotoxin [CTX]
- Brain tumors targeted of those examined (brain tumors): 74 out of 79

Compound: Nc1nc(OCc2ccccc2)c2nc[nH]c2n1 [BG, O^6-benzylguanine]
- Reduction of maximum tolerated dose (MTD) of TMZ [1]: 50%
- Half-life reported in literature [2]: 1.2 h
- TMZ LD50 in presence of MGMT inhibitor (SF767 cells; inhibitor equivalent to 20 μM BG for 2 hr before TMZ for 24 hr): about 15 μM
- Fold reduction of MGMT activity [3]: about 28 fold
- MGMT activity as percent of untreated activity [3]: about 3.6%

Source: patent US9784730B2, “Nanoparticle for targeting brain tumors and delivery of O6-benzylguanine” (University of Washington through its Center for …, priority 2013, dated 2017)
